According to patent US20180136216A1, “Biomarkers for a Combination Therapy Comprising Lenvatinib and Everolimus” (EISAI R&D MANAGEMENT CO., LTD., priority 2015, published 2018):

System: metastatic renal cell carcinoma (RCC)
Test: Phase 2 study (NCT01136733) of lenvatinib, everolimus or the combination; baseline serum Ang2 versus OS and PFS
Assay type: in vivo, human
Method: Purpose: A Phase 2 study for lenvatinib was performed in patients with metastatic renal cell carcinoma (RCC) following a VEGF-targeted therapy. The importance of angiogenesis in RCC highlights the need to understand clinical mechanisms of escape from anti-angiogenic therapy, such as everolimus. This clinical biomarker analysis was conducted to identify predictive markers of clinical benefit in RCC patients upon the combination therapy with lenvatinib and everolimus compared to everolimus monotherapy.
The purpose of this analysis was to measure Ang2 level in blood samples, such as serum, obtained from patients in clinical trials at both pre- and post-treatment with lenvatinib, everolimus or the combination thereof, and to identify blood biomarkers which can be used to predict whether patients will need the combination therapy.
Materials and Methods: Patients having metastatic renal cell carcinoma after a prior VEGF-targeted therapy received lenvatinib mesylate (“lenvatinib”), everolimus, or the combination thereof until disease progression or development of unmanageable toxicities. Patients received lenvatinib at a dose of 24 mg (as lenvatinib free base; the same shall apply hereinafter) oral once daily, everolimus at a dose of 10 mg oral once daily, or lenvatinib at 18 mg and everolimus at 5 mg oral once daily. 153 patients were treated and evaluated for efficacy and molecular correlative analysis. This study was a part of a Phase 2 multicenter study of lenvatinib (NCT01136733). Pre- and post-treatment serum samples were collected for biomarker analysis. Serum samples were collected on Cycle 1 Day 1 (pre-treatment), Cycle 2 Day 15, and Day 1 of every cycle from Cycle 2, and at off-treatment. Each Cycle consisted of 4 weeks (28 days). Ang2 detection enzyme immunoassay kit (EIDIA Co., Ltd.) was used for the quantification of serum Ang2 level. The association between the concentration at Cycle 1 Day 1 (“baseline level”) of Ang2 and clinical outcomes, such as progression free survival (PFS) and overall survival (OS), was assessed. PFS is defined as the time from the date of randomization to the date of first documentation of disease progression or death, whichever occurs first. PFS was based on investigator review data using RECIST 1.1. OS is defined as the time from randomization until death from any cause. “Randomization” means randomization of a patient into a test group or a control group when therapy plan for a patient is determined.

[1] = low baseline Ang2 (≤3760 pg/ml)

**Q.** Which “median PFS” value (high baseline Ang2 (>3760 pg/ml)) does the source give for `CO[C@H]1C[C@@H]2CC[C@@H](C)[C@@](O)(O2)C(=O)C(=O)N2CCCC[C@H]2C(=O)O[C@H]([C@H](C)C[C@@H]2CC[C@@H](OCCO)[C@H](OC)C2)CC(=O)[C@H](C)/C=C(\C)[C@@H](O)[C@@H](OC)C(=O)[C@H](C)C[C@H](C)/C=C/C=C/C=C/1C` [everolimus, (1R,9S,12S,15R,16E,18R,19R,21R,23S,24E,26E,28E,30S,32S,35R)-1,18-dihydroxy-12-{(1R)-2-[(1S,3R,4R)-4-(2-hydroxyethoxy)-3-methoxycyclohexyl]-1-methylethyl}-19,30-dimethoxy-15,17,21,23,29,35-hexamethyl-11,36-dioxa-4-aza-tricyclo[30.3.1.0^4,9]hexatriaconta-16,24,26,28-tetraene-2,3,10,14,20-pentaone] here?
**A.** 5.5 months

**Q.** And the “median OS” value (high baseline Ang2 (>3760 pg/ml, 33rd percentile cut-off))?
**A.** 12.2 months

**Q.** What about the “median OS” value (higher baseline Ang2, 25th percentile cut-off (3565 pg/ml)) of the same compound?
**A.** 12.2 months

**Q.** What about the “median OS” value (higher baseline Ang2, 70th percentile cut-off (5650 pg/ml)) of the same compound?
**A.** 12.2 months

**Q.** And the “median OS” value [1]?
**A.** not reached

**Q.** And the “median PFS” value [1]?
**A.** 5.6 months
